This passage reports IC50 results from ChEMBL document CHEMBL3879881, “Substituted pyrazolyl compounds for the treatment of inflammation” (2005).

Bounds are passed on as bounds.

The test has as its target T1, Inhibitor of nuclear factor kappa-B kinase subunit beta (Homo sapiens, UniProt O14920).
T1 sequence (O14920 whole entry): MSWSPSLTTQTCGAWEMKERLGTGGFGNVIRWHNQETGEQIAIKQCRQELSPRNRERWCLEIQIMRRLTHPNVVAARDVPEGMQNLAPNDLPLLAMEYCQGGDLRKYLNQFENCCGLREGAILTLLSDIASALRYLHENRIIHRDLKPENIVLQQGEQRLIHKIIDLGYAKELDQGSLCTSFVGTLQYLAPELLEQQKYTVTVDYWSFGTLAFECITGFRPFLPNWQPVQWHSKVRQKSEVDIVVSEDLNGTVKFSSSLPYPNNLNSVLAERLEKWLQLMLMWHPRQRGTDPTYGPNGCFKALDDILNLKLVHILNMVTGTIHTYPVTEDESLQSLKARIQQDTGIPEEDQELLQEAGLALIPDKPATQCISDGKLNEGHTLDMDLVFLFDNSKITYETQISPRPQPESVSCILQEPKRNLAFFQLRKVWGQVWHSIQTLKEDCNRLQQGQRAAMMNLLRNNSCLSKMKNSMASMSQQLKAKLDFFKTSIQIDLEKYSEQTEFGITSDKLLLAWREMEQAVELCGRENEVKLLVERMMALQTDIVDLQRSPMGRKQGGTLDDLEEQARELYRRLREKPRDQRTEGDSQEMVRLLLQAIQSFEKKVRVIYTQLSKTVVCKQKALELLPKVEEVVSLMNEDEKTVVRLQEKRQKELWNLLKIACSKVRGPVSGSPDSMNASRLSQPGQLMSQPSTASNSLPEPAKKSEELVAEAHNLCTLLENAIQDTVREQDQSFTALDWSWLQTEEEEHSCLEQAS
The experiment in a line: Inhibition of human recombinant C-terminal FLAG-epitope-tagged IKK2 expressed in baculovirus using biotinylated IkappaBalpha peptide as substrate assessed as decrease in [gamma-33P]-ATP incorporation in substrate after 30 mins by scintillation counting method.
For orientation: IC50 means the concentration needed to halve the response being measured. With `NC(=O)c1nn(-c2ccc(-c3ccoc3)cc2)c2c1CCc1ccc(NC(=O)c3ccccc3Cl)cc1-2`, the IC50 fell in the range of 1000 to 10000 nM.
The same measure for `NC(=O)c1nn(-c2ccc(S(N)(=O)=O)cc2)c2c1CCc1ccc(NS(=O)(=O)c3ccc(F)cc3)cc1-2`: 1000 to 10000 nM.
The same measure for `NC(=O)c1nn(-c2ccc(NC(=O)COCc3ccccc3)cc2)c2c1CCc1ccc(NC(=O)c3ccccc3Cl)cc1-2`: 1000 to 10000 nM; for `NC(=O)c1nn(-c2ccc(Br)cc2)c2c1CCc1ccc(N)cc1-2`: 1000 to 10000 nM; for `NC(=O)c1nn(-c2ccc(S(N)(=O)=O)cc2)c2c1CCc1ccc(NCc3ccc(Cl)cc3)cc1-2`: 10000 to 100000 nM.
For the molecule `CS(=O)(=O)c1ccc(-n2nc(C(N)=O)c3c2-c2cc(NC(=O)c4cnccc4Cl)ccc2CC3)cc1`, the IC50 lay within 1000 to 10000 nM.
As to `CS(=O)(=O)Nc1ccc2c(c1)-c1c(c(C(N)=O)nn1-c1ccc(S(N)(=O)=O)cc1)CC2`, the concentration for half-maximal inhibition (IC50) is ≤ 1000 nM.
`COc1ccccc1C(=O)Nc1ccc2c(c1)-c1c(c(C(N)=O)nn1-c1ccc(S(N)(=O)=O)cc1)CC2`: the half-maximal inhibitory concentration (IC50) was in the range of 10000 to 100000 nM.
As for `COc1ccc([N+](=O)[O-])c(C(=O)Nc2ccc3c(c2)-c2c(c(C(N)=O)nn2-c2ccc4c(c2)OCO4)CC3)c1`, the half-maximal inhibitory concentration (IC50) lay within 1000 to 10000 nM.
As for `C[C@@H]1CN(c2cc(C(=O)Nc3ccc4c(c3)-c3c(c(C(N)=O)nn3-c3ccc(F)cc3)CC4)c(Cl)cn2)CCN1`, the 50% inhibitory concentration (IC50) was ≤ 1000 nM.
The same measure for `N#Cc1ccc(C(=O)Nc2ccc3c(c2)-c2c(c(C(N)=O)nn2-c2ccc4c(c2)OCO4)CC3)cc1`: 1000 to 10000 nM; for `NC(=O)c1nn(-c2ccc(S(N)(=O)=O)cc2)c2c1CCc1ccc(NC(=O)c3cccnc3Cl)cc1-2`: ≤ 1000 nM.
The value for `NC(=O)c1nn(-c2ccc(F)cc2)c2c1CCc1ccc(NC(=O)c3cc(Cl)ncc3Cl)cc1-2` was ≤ 1000 nM; that for `CCS(=O)(=O)Nc1ccc2c(c1)-c1c(c(C(N)=O)nn1-c1ccc(S(N)(=O)=O)cc1)CC2` was ≤ 1000 nM; that for `Cc1ccn2c(C)c(C(=O)Nc3ccc4c(c3)-c3c(c(C(N)=O)nn3-c3ccc(S(C)(=O)=O)cc3)CC4)nc2c1` was 1000 to 10000 nM.
The same measure for `NC(=O)c1nn(-c2ccc3c(c2)OCO3)c2c1CCc1ccc(NC(=O)c3ccc(Cl)c(N)c3)cc1-2`: 1000 to 10000 nM.
With `NC(=O)c1nn(-c2ccc(S(N)(=O)=O)cc2)c2c1CCc1ccc(NC(=O)C3CCCC3)cc1-2`, the 50% inhibitory concentration (IC50) lay in the range of 1000 to 10000 nM.
The same measure for `NC(=O)c1nn(-c2ccc(S(N)(=O)=O)cc2)c2c1CCc1ccc(NC(=O)c3ccc(C(F)(F)F)cc3)cc1-2`: 1000 to 10000 nM; for `Cc1cccc(C(=O)Nc2ccc3c(c2)-c2c(c(C(N)=O)nn2-c2ccc(S(C)(=O)=O)cc2)CC3)c1[N+](=O)[O-]`: 1000 to 10000 nM; for `CN1CCN(c2ccc(Cl)c(C(=O)Nc3ccc4c(c3)-c3c(c(C(N)=O)nn3-c3ccc(S(C)(=O)=O)cc3)CC4)c2)CC1`: < 1000 nM.
The same measure for `CCC(=O)Nc1ccc2c(c1)-c1c(c(C(N)=O)nn1-c1ccc(S(N)(=O)=O)cc1)CC2`: 1000 to 10000 nM; for `CN(C)CCC(=O)Nc1ccc(-n2nc(C(N)=O)c3c2-c2cc(NC(=O)c4ccccc4Cl)ccc2CC3)cc1`: 1000 to 10000 nM.
The value for `C[S+]([O-])c1ccc(Cl)c(C(=O)Nc2ccc3c(c2)-c2c(c(C(N)=O)nn2-c2ccc(O)cc2)CC3)c1` (configuration not stated) was ≤ 1000 nM.
`C#Cc1ccc(-n2nc(C(N)=O)c3c2-c2cc(NC(=O)c4cccnc4Cl)ccc2CC3)cc1`: the IC50 is 1000 to 10000 nM.
The same measure for `NC(=O)c1nn(-c2ccc(S(N)(=O)=O)cc2)c2c1CCc1ccc(NS(=O)(=O)c3ccccc3Cl)cc1-2`: 10000 to 100000 nM; for `NC(=O)c1nn(-c2ccc(S(N)(=O)=O)cc2)c2c1CCc1ccc(NC(=O)Cc3ccccc3)cc1-2`: 1000 to 10000 nM.
The value for `NC(=O)c1nn(-c2ccc(Cl)cc2)c2c1CCc1ccc(NC(=O)c3ccccc3Cl)cc1-2` was ≤ 1000 nM.
